Experimental data from patent publication US7279548B2, “Identification and isolation of novel polypeptides having WW domains and methods of using same” (Cytogen Corporation, priority 1996, dated 2007).
No end group written: not given here. *: point of attachment. Biotin = O=C1N[C@H]2[C@H](CS[C@H]2CCCCC(=O)*)N1

Tests used:
Format in all cases: binding, human
[1] = test system: twelve individual novel WW domains of WWP1, WWP2, WWP3 and WWP4; assay: ELISA based cross affinity mapping, whole panel of novel WW domains; settings: biotinylated peptide-streptavidin/alkaline phosphatase complex, GST fusion proteins
Protocol: (§1) The 16 day mouse embryo cDNA expression library was diluted 1:1000 in SM solution (100 mM NaCl, 8 mM MgSOv4, 50 mM Tris HCl pH 7.5, 0.01% gelatin). To a sterile test tube, 2 μl of diluted mouse embryo library, 100 μl of 10 mM CaCl2, 100 μl of 10 mM MgCl2 and 100 μl of BL21(DE3)pLysE bacterial cells (grown overnight) were added and incubated for 30 minutes at 37° C. The contents of the tube were mixed with 3 ml of 0.6% top agarose, containing […] chloramphenicol, and poured onto a 2xYT plate (90 mm diameter). For a large primary screen, 10–20 plates were prepared with 3×10^4 pfu per plate. After 6 hours incubation at 37° C., a nitrocellulose filter soaked in 10 mM isopropyl-β-D-thiogalactopyranoside (IPTG) was overlaid on each plate and incubated 3–6 hours at 37° C. Before the filters were removed from the plates, they were marked asymmetrically with India ink in a 18 gauge syringe needle. The plates were stored at 4° C. until ready for the secondary screen. The filters were washed with PBS (137 mM NaCl, 2.7 mM KCl, 4.3 mM Na2HPO4, 1.4 mM KH2PO4)-0.05% Triton X-100 three times at room temperature, 15 minutes each wash, and then placed in a plastic bag containing non-specific blocking solution (PBS-2% BSA) for one hour. In the meantime, 1 ml of 1 mM biotinylated peptide in PBS-0.1% Tween 20 was added to 20 ml of 1 mg/ml streptavidin-alkaline phosphatase (SA-AP) in PBS-0.1% Tween 20 and incubated at 4° C. for 30 minutes. […] Excess biotin-binding sites would then be blocked by addition of 500 pmol biotin. […] Ten μl of 0.1 mM biotin would then be added, and the solution incubated for an additional 15 min.
(§2) To determine the ligand preferences of the novel WW omain-containing clones described in Sections 6.1 and 6.1.1, as well as addressing the issue of whether peptides containing PPPPY (SEQ ID NO:3)-like motifs derived from a variety of proteins could also serve as recognition units and bind to these clones, a cross affinity mapping experiment was performed (FIGS. 15A–D). The peptides shown in FIGS. 15A–D were synthesized, biotinylated, complexed with streptavidin-alkaline phosphatase, and tested in an ELISA based assay for their ability to bind to the twelve individual novel WW domains of WWP1, WWP2, WWP3 and WWP4 which were expressed as GST fusion proteins. The ELISA based cross-affinity experiments were performed essentially as described by Sparks et al. (1996, Proc. Natl. Acad. Sci. 93:1540–1544) with the following modifications. Briefly, microtiter wells were coated with 1–5 μg of fusion protein in 100 mM NaHCO3, blocked with SuperBlock TBS (Pierce) and washed four times with PBS, 0.05% Tween 20. Specific peptide-streptavidin/alkaline phosphatase complexes were added as above and unbound complexes washed five times with PBS, 0.05% Tween 20. Following addition of PNP substrate (p-nitrophenyl phosphate, Kirkegard & Perry Labs), peptide binding was quantitated after 30 min. at O.D. 405 nm. Relative binding measurements from three independent determinations were assigned to a scale as follows: O.D. units 0–0.5=(−), 0.5–1.0=(+), 1.0–2.0=(++), 2.0–3.0=(+++), >3.0=(++++). Peptide binding to human Fyn and Lyn SH3 and SH2 domains was assessed by a filter binding assay (see Section 6.1 and Sparks et al., 1996, Proc. Natl. Acad. Sci 93:1540–1544). Peptide sequences used in cross-affinity experiments correspond to segments of the following genes: RasGap (Database accession # P20936), AP-2 (P05549), p53BP-2 (U09582), IL-6Rα (P22272), voltage-gated chloride channel CLCN5 (X91906), IL-2Rγ (D111086), RSV (D10652), HTLV-1 (D13784), β-dystroglycan (L19711), Formin (X53599), amiloride-sensitive epithelial Na^+ channel ENaCα (P37089), ENaCβ (X87159) and ENaCγ (X87160), muscarinic acetylcholine receptor M4 AChR (P08173), and c-Abl (P00522). Src and Crk SH3 binding peptide sequences were derived from a phage display random peptide library screen (Section 6.1 and Sparks et al., 1996, Proc. Natl. Acad. Sci. 93:1540–1544).

[2] = test system: WW domains of WWP1 expressed as GST fusion proteins; assay: ELISA based cross affinity mapping, WW domains of WWP1; settings: biotinylated peptide-streptavidin/alkaline phosphatase complex; GST fusion proteins; ELISA
Protocol: as §1, §2

[3] = test system: WW domains of WWP2 expressed as GST fusion proteins; assay: ELISA based cross affinity mapping, WW domains of WWP2; settings: biotinylated peptide-streptavidin/alkaline phosphatase complex; GST fusion proteins; ELISA
Protocol: as §1, §2

Biotin-SGSGYVQPPPPPYPGPM [WBP-2A]
binding to the novel WW domains (WWP1, WWP2, WWP3, WWP4 panel) [1]: bound to several individual WW domains to varying degrees
binding to WW domains of WWP1 [2]: specifically bind
binding to WW domains of WWP2 [3]: specifically bind

Biotin-SGSGPGTPPPPYTVGPGY [WBP-1]
binding to the novel WW domains (WWP1, WWP2, WWP3, WWP4 panel) [1]: bound to several individual WW domains to varying degrees
binding to WW domains of WWP1 [2]: specifically bind
binding to WW domains of WWP2 [3]: specifically bind

Biotin-SGSGPGTPYPPPPEFY [WBP-2B]
binding to the novel WW domains (WWP1, WWP2, WWP3, WWP4 panel) [1]: no binding activity
binding to WW domains of WWP1 [2]: none of the WW domains of these proteins specifically bind
binding to WW domains of WWP2 [3]: none of the WW domains of these proteins specifically bind
